Test results as given in PubChem BioAssay AID977624 (Broad Institute, 2014).
Records with an inconclusive call do not appear. Calls of active or inactive are those of the source.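 The calls were made as follows: active = compound lowering the normal-ribosome reporter at least twice as much as the humanized-ribosome reporter, growth loss under a set limit; inconclusive = no clear call, values can overlap the other calls; inactive = the rest.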

System: E. coli wild-type GFP strain growth, fluorescence, 24 h
Assay: wild-type E. coli growth inhibition versus h34 humanized strain – h34 mutant RFP, wild-type GFP, cherry-pick, dose response (AID 977624);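 also: wild-type GFP strain co-cultured with humanized h34 ribosome RFP strain in same well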

| SMILES | AC50 |
| --- | --- |
| COc1ccc(CCNc2nc(-c3ccncc3)cs2)cc1OC | > 100 µM (inactive) |
| CCOc1ccccc1N1CCN(Cc2cn[nH]c2-c2ccc(F)cc2)CC1 | > 100 µM (inactive) |
| O=C(CN1CCc2ccccc2C1)Nc1ccc(F)cc1F | > 100 µM (inactive) |
| CCOC(=O)c1[nH]c2ccccc2c1NC(=O)c1ccc(Br)o1 | > 100 µM (inactive) |
| C=CCn1c(-c2cc3cccc(OC)c3o2)n[nH]c1=S | > 100 µM (inactive) |
| CCc1ccc(NC(=O)CCc2c(C)nn(-c3ccc(N4CCCCC4)nn3)c2C)cc1 | > 100 µM (inactive) |
| O=C(CCc1nc2ccccc2s1)OCC(=O)c1ccc[nH]1 | > 100 µM (inactive) |
| CN1CCN(C(=O)C[C@H]2CC[C@@H]3[C@H](COC[C@@H](O)CN3C(=O)Nc3ccc(Cl)cc3)O2)CC1 | > 100 µM (inactive) |
| COc1ccc2[nH]cc(CCNC(=O)C3CC(=O)N(c4ccc(Cl)cc4)C3)c2c1 (configuration not stated) | > 100 µM (inactive) |
| Cc1ccc(C(=O)OCC(=O)c2c[nH]c3ccccc23)cc1NC(=O)c1ccco1 | > 100 µM (inactive) |
| Cc1ccc(NC(=O)CCCSc2ccccc2)cc1S(=O)(=O)N1CCOCC1 | > 100 µM (inactive) |
| COc1ccc(C(=O)Nc2ccc3oc(Cc4ccc(Cl)cc4)nc3c2)cc1OC | > 100 µM (inactive) |
| O=C(Nc1ccc(S(=O)(=O)NC2=NCCCCC2)cc1)c1ccc([N+](=O)[O-])s1 | > 100 µM (inactive) |
| Cc1oc(-c2ccc(-c3ccccc3)cc2)nc1CN(C)C1CCOC1 (configuration not stated) | > 100 µM (inactive) |
| COc1ccc(NC(=O)Nc2cccc3c2O[C@@H](CN(C)S(=O)(=O)c2ccc(Cl)cc2)[C@H](C)CN([C@H](C)CO)C3=O)cc1 | > 100 µM (inactive) |
| Cc1csc(SCc2nc3scc(-c4ccccc4)c3c(=O)[nH]2)n1 | > 100 µM (inactive) |
| CCOc1ccc(S(=O)(=O)N(C)c2ccc(OCC(=O)Nc3ccc4[nH]c(=O)[nH]c4c3)cc2)cc1 | > 100 µM (inactive) |
| O=[N+]([O-])c1cccnc1N1CCN(c2ccc(F)cc2)CC1 | > 100 µM (inactive) |
| CCOc1ccc(NC(=O)CN(C)CC(=O)Nc2ccc(Br)cc2F)cc1OCC | > 100 µM (inactive) |
| Fc1cccc(Cl)c1CSc1ccc(-c2ccco2)nn1 | > 100 µM (inactive) |
| CCOc1cccc(-c2cc(-c3n[nH]c(=S)n3CC)c3ccccc3n2)c1 | > 100 µM (inactive) |
| COc1ccc2nc(SCC(=O)Nc3ccccc3)[nH]c2c1 | > 100 µM (inactive) |
| COc1ccc(Nc2nc(N)c([N+](=O)[O-])c(N3CCCC3)n2)cc1 | > 100 µM (inactive) |

| SMILES | AC50 |
| --- | --- |
| N#Cc1nc(Cc2ccccc2)oc1N1CCCC1 | > 100 µM (inactive) |
| COc1ccc(-c2csc(NC(=O)CC(NC(C)=O)c3ccccc3)n2)cc1OC (configuration not stated) | > 100 µM (inactive) |
| CN(CCOc1ccccc1)S(=O)(=O)c1ccccc1C#N | > 100 µM (inactive) |
| O=C(CCCSc1nc2ccccc2s1)NCc1ccc2c(c1)OCO2 | > 100 µM (inactive) |
| O=C(CCCOc1ccc(Cl)cc1Cl)Nc1ccccc1C(=O)O | > 100 µM (inactive) |
| CN(c1ccccc1)S(=O)(=O)c1cccc(C(=O)OCC(=O)NCc2ccco2)c1 | > 100 µM (inactive) |
| CC1(C(=O)NS(=O)(=O)c2cccc(C#N)c2)CCN1C(=O)C1(c2ccc(Cl)cc2)CCC1 (configuration not stated) | > 100 µM (inactive) |
| COC(=O)c1c(-c2ccc(OC)cc2)sc2cc(OC)c(OC)cc12 | > 100 µM (inactive) |
| N#Cc1ccsc1NC(=O)CSc1nnnn1-c1ccc(O)cc1 | > 100 µM (inactive) |
| O=C(O)CC1(CC(=O)NCc2ccc(-c3cccs3)cc2)CCCCC1 | > 100 µM (inactive) |
| COc1cc(NC(=O)c2ccc([N+](=O)[O-])o2)ccc1NC(=O)c1ccco1 | > 100 µM (inactive) |
| CCOC(=O)c1c(CS(=O)(=O)c2ccccc2)n(C)c2cc(Br)c(O)cc12 | > 100 µM (inactive) |
| COc1cc2c(cc1OC)C1(C)N(CC2)C(C(C)=O)=NN1c1ccc(Cl)cc1 (configuration not stated) | > 100 µM (inactive) |
| COc1ccc(C(=O)NCCc2ccccn2)cc1S(=O)(=O)Nc1ccc(Br)cc1 | > 100 µM (inactive) |
| COc1cc(NC(=O)CSCc2ccc(Cl)cc2Cl)c(C(=O)O)cc1OC | > 100 µM (inactive) |
| COc1ccc(NC(=O)CN(c2ccccc2OC)S(=O)(=O)c2cccs2)cc1Cl | > 100 µM (inactive) |
| Cc1ccc(-n2nc(C)c3c(C)c(CCC(=O)O)c(C)nc32)cc1C | > 100 µM (inactive) |
| O=C(NCc1nc2ccccc2[nH]1)c1ccc(S(=O)(=O)N2CCCC2)cc1 | > 100 µM (inactive) |
| Cc1ccccc1-n1nnnc1SCCCC(=O)c1ccc(F)cc1 | > 100 µM (inactive) |
| O=S(=O)(c1ccccc1)N1C[C@H]2[C@@H](c3ccccc31)[C@@H](CO)N2Cc1ccccc1 | > 100 µM (inactive) |
| CCCN(CC1CC1)C(=O)CSc1ncnc2sccc12 | > 100 µM (inactive) |
| CCN(CC)CCN(C(=O)C1CCCCC1)c1nc2cc3c(cc2s1)OCO3 | > 100 µM (inactive) |
| CC(C)(C)C1CCC(OCC(O)CN2CCN(c3ccccn3)CC2)CC1 (configuration not stated) | > 100 µM (inactive) |

| SMILES | AC50 |
| --- | --- |
| COc1ccccc1-c1ccc(SCc2cccc(F)c2)nn1 | > 100 µM (inactive) |
| O=C(CCCn1c(=S)[nH]c2ccsc2c1=O)Nc1ccc2c(c1)OCCO2 | > 100 µM (inactive) |
| COc1ccc(Br)c(-c2nc(CS(=O)(=O)c3ccc(F)cc3)no2)c1 | > 100 µM (inactive) |
| CCC(=O)Nc1sc(Cc2ccc3c(c2)OCO3)c(C)c1C(N)=O | > 100 µM (inactive) |
| CSc1ccccc1NC(=O)c1ccccc1N(Cc1ccccc1)S(C)(=O)=O | > 100 µM (inactive) |
| CC1(C)CC(=O)c2cnc(N3CCc4ccccc43)nc2C1 | > 100 µM (inactive) |
| CC1(C(=O)NS(=O)(=O)c2cccc(Cl)c2)CCN1C(=O)C1(c2ccc(Cl)cc2)CCC1 (configuration not stated) | > 100 µM (inactive) |
| Cc1cccc(-c2ccc([C@H]3[C@@H](CO)N4CCCCN(S(=O)(=O)c5ccccc5C)C[C@H]34)cc2)c1 | > 52 µM (inactive) |
| C[C@H](CO)N1C[C@H](C)[C@H](CN(C)C(=O)CCCN(C)C)OCCCC[C@H](C)Oc2ccc(NC(=O)Nc3cccc4ccccc34)cc2C1=O | > 100 µM (inactive) |
| Cc1ccc(C2NC(=O)c3[nH]nc(-c4ccccc4)c32)cc1 (configuration not stated) | > 100 µM (inactive) |
| CC(OC(=O)CCc1nc2ccccc2c(=O)[nH]1)C(=O)c1ccc(Br)cc1 (configuration not stated) | > 100 µM (inactive) |
| CSc1cccc(NC(=O)CSc2nc3ccccc3o2)c1 | > 100 µM (inactive) |
| CC1CCN(CC(O)COCCC23CC4CC(CC(C4)C2)C3)CC1 (configuration not stated) | > 100 µM (inactive) |
| O=C(CCc1ccccc1)Nc1sc2c(c1C(=O)O)CCCC2 | > 100 µM (inactive) |
| CCN(CC)S(=O)(=O)c1ccc(O)c(C(=O)OCC(=O)NC23CC4CC(CC(C4)C2)C3)c1 | > 100 µM (inactive) |
| COc1ccccc1Cn1c(=S)[nH]c2ccc(F)cc2c1=O | > 100 µM (inactive) |
| COc1ccc(CNC(=O)Cc2cn(C)c3ccccc23)c(OC)c1 | > 100 µM (inactive) |
| CCCCC(=O)N1CCN(c2nc3ccc(Br)cc3s2)CC1 | > 100 µM (inactive) |
| CCOC(=O)c1nc(S(C)(=O)=O)ncc1Cl | > 100 µM (inactive) |
| Cc1ccc2oc(C(=O)N(CCO)Cc3ccccc3)c(C)c2c1 | > 100 µM (inactive) |
| NC(=O)c1sc2nnc(-c3ccccc3)c(-c3ccccc3)c2c1N | > 100 µM (inactive) |
